{"source": "patent EP2853565A1", "about": "“Glutamate receptor photomodulators” (Consejo Superior De Investigaciones Científicas, priority 2013, dated 2015)", "key": {"[1]": {"test": "Lipophilicity and solubility observed on handling (data not shown)", "assay_type": "physicochemical", "from_the_text": "SIB-1757 (48) (Sigma Aldrich) is a moderate-affinity non-competitive antagonist of mGlu5 [J. Pharmacol. Exp. Thr., 1999, 290, 170-181]. […] However, we tested the molecule on a cell line heterogously expressing mGlu5, to ensure that the biological effect of SIB-1757 (48) on the target receptor is not light dependent. […] Moreover, we observed a high lipophilicity of the molecule, and also a low solubility, which make SIB-1757 (48) quite uneasy to handle for biological applications (not shown)."}, "[2]": {"test": "UV-VIS absorption spectrum before and after irradiation", "assay_type": "physicochemical", "details": "solution in DMSO, irradiation with ultraviolet light (380 nm)"}, "[3]": {"target": "T1, rat metabotropic glutamate receptor 5 (mGlu5) (Rattus norvegicus, UniProt P31424)", "T1 construct": "expressed in transfected cells; host or cells: HEK tsA201 cells", "T1 sequence (P31424 21-1171 isoform P31424-2 limits assumed)": "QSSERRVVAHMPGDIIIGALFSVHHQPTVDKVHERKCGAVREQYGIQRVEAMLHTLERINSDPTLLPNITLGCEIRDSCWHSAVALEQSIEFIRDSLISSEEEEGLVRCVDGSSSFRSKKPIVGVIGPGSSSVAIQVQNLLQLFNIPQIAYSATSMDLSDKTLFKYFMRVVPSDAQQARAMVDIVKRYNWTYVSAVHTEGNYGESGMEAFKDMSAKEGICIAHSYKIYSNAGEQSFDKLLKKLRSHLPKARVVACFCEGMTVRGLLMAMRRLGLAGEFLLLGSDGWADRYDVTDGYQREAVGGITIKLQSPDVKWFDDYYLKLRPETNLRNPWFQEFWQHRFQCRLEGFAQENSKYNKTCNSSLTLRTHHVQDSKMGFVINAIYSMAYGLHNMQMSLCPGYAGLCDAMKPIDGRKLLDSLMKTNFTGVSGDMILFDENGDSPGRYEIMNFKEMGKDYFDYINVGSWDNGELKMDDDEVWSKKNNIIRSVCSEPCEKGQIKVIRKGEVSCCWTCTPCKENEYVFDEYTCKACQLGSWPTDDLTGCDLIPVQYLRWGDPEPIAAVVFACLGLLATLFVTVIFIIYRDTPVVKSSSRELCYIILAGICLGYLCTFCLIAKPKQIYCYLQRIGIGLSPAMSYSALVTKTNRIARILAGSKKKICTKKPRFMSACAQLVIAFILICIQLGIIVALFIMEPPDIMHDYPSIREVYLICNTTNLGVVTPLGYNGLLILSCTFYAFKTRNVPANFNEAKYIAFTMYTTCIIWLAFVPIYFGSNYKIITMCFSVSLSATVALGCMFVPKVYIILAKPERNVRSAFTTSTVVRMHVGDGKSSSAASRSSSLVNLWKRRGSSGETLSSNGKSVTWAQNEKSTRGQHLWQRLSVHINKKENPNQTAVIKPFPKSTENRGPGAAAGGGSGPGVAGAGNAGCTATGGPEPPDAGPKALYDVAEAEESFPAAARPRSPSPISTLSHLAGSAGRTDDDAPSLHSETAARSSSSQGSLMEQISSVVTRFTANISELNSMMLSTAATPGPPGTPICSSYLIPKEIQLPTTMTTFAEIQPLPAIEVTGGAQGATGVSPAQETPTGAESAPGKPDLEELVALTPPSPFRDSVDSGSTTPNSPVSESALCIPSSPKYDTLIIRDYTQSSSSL", "test": "Single-cell calcium imaging (Fura-2) of quisqualate-evoked calcium oscillations, with photoisomerization by 390/490 nm light", "assay_type": "cell-based", "details": "3 µM quisqualate", "procedure": "Cell Culture and Transient Transfection: Human embryonic kidney (HEK) tsA201 cells were maintained at 37 °C and humidified atmosphere with 5% CO2; cells were grown in Dulbecco's Modified Eagle's Medium/Nutrient Mixture F-12 Ham (DMEM/F12, 1:1) medium, supplemented with 10% Fetal Bovine Serum (FBS) and antibiotics (1% Penicillin/Streptomycin). Once at confluence, culture flasks were washed twice with PBS and harvested with 300 µl Accutase. Expression of rat mGlu5a was induced by transient transfection of the cDNA-containing plasmid with X-tremeGENE 9 DNA Transfection Reagent. For transfection, cells were seeded at a concentration of 10^6 cells per well on 6-multiwell plates with a final volume of 2ml, and immediately transfected following manufacturer's instructions (100 µl mixture of 3:1 (µl:µg) of X-tremeGENE 9 DNA TR:mGlu5a plasmid in serum-free medium, 20 minutes incubation). About 24h after transfection, HEK tsA201 cells transiently overexpressing mGlu5a were seeded onto 15 mm glass coverslips pre-treated with Poly-L-Lysine to allow cell adhesion. Seeding concentration was maintained between 2/4·10^5 cells to get preconfluent cultures at the time of experiment. Transfected cells were used for single-cell calcium imaging experiments between 48 and 72 hours after transfection.\nSingle-cell Calcium Imaging: At the time of experiments, glass coverslips were mounted onto the recording chamber, and cells were loaded with the high affinity, ratiometric, intracellular calcium indicator Fura-2 AM; the dye was incubated during 30 minutes at 37°C and 5% CO2, at a final concentration of 10 µM in Ca^2+-free extracellular solution (ES, -Ca^2+). We used a ratiometric calcium sensor in order to avoid bleaching artefacts. Cells were then carefully rinsed with fresh ES, three to four times, before the recording chamber was placed on an inverted fully-motorised digital microscope (iMic 2000, Till Photonics, Gräfelfing, Germany). Images were acquired at room temperature with a UV Apochromat 40x oil objective lens (Olympus, Tokio, Japan). Fura-2 AM was excited consecutively for 10 ms at two different wavelengths (340 and 380 nm) as indicated by the manufacturer (Life Technologies, Paisley, UK) by using a Polychrome V light source (Till Photonics) and a 505 nm dichroic beamsplitter (Chroma Technology, Below Falls, VT, USA); emission at 510 nm was filtered by a D535/40nm emission filter (Chroma Technology) and finally collected by a cooled CCD camera (Interline Transfer IMAGO QE, Till Photonics). The fluorescence measurements (excitation + emission recording) were carried out every 2 seconds, and each measurement takes about 10-50 ms. The 340 and 380 nm images were stored by the TILLvisION imaging software (Till Photonics); the ratio of the emission when the sample was excited at 340 nm and the emission when it was excited at 380 nm was recorded and its mean value was calculated for each cell using the same software. Higher ratios correspond to higher intracellular calcium concentrations.\nAgonists and allosteric modulators addition was obtained by carefully pipetting an initial 1:30 dilution of the compound directly into the accessory pool of the recording chamber, obtaining a final dilution of 1:1000 (total DMSO concentration was always lower than 1%). Activation of the agonist was induced in HEK tsA201 mGlu5a transfected cells with the glutamate analogue Quisqualic acid (3 µM). Only evoked, sustained intracellular calcium oscillations were taken into account as consistent cell responses to the application of the agonist; different responses (such as single-peak, peak-and-plateau, etc.), as well as spontaneously oscillating cells, were discarded as unsuitable for calculating the oscillatory frequency.\nSolutions and Reagents: The extracellular solution (ES) used for single-cell calcium imaging contained: 140 mM NaCl, 5.4 mM KCI, 1 mM MgCl2, 10 mM HEPES, 10 mM glucose and 2 mM CaCl2 adjusted to pH 7.4 with NaOH. […]"}}, "data": [{"smiles": "Cc1ccc(O)c(/N=N/c2ccccc2)n1", "note": "[SIB-1757]", "values": [{"measurement": "lipophilicity", "setting": "[1]", "value": "high"}, {"measurement": "solubility", "setting": "[1]", "value": "low"}, {"measurement": "photoswitch in the UV-VIS absorption spectrum", "setting": "[2]", "value": "did not reveal any photoswitch"}, {"measurement": "effect on mGlu5 response (calcium oscillations)", "setting": "[3]; HEK tsA201 cells", "value": "clearly an antagonist of mGlu5"}, {"measurement": "light dependence of the activity on mGlu5", "setting": "[3]; UV (380/390 nm) and visible (500/490 nm) light", "value": "not light-dependent"}]}]}
